ChEMBL document CHEMBL3098001, “Synthesis and biological evaluation of cyclopentyl-triazolol-pyrimidine (CPTP) based P2Y12 antagonists” (Bioorg Med Chem Lett, 2014)

Key:
[1] = target: P2Y purinoceptor 12 (Rattus norvegicus) (UniProt Q9EPX4); experiment: Antagonist activity at P2Y12 receptor in rat platelet-rich plasma assessed as inhibition of ADP-induced platelet aggregation at 3 uM incubated for 5 mins prior to ADP-challenge by light transmission-based assay
[2] = AUC in rat at 10 mg/kg, po; type: ADME, organism-based; parameters: dose 10 mg/kg, route oral; conditions: plasma
[3] = Cmax in rat at 10 mg/kg, po; type: ADME, organism-based; parameters: dose 10 mg/kg, route oral; conditions: in vivo
[4] = Half life in rat at 10 mg/kg, po; type: ADME, organism-based; parameters: dose 10 mg/kg, route oral; conditions: in vivo
[5] = (§1) Apparent volume of distribution during terminal phase in rat at 10 mg/kg, po; type: ADME, organism-based; parameters: dose 10 mg/kg, route oral; conditions: in vivo, read-out: Vz/F
[6] = Apparent oral clearance in rat at 10 mg/kg; type: ADME, organism-based; parameters: dose 10 mg/kg, route oral; conditions: in vivo
Rattus norvegicus [7] = experiment: as §1; type: ADME, organism-based; parameters: dose 10 mg/kg, route oral; conditions: in vivo
[8] = AUC in dog at 1 mg/kg, po; type: ADME, organism-based, Canis lupus familiaris; parameters: dose 1 mg/kg, route oral; conditions: plasma
[9] = Cmax in dog at 1 mg/kg, po; type: ADME, organism-based, Canis lupus familiaris; parameters: dose 1 mg/kg, route oral; conditions: in vivo
[10] = Half life in dog at 1 mg/kg, po; type: ADME, organism-based, Canis lupus familiaris; parameters: dose 1 mg/kg, route oral; conditions: in vivo
[11] = Apparent volume of distribution during terminal phase in dog at 1 mg/kg, po; type: ADME, organism-based, Canis lupus familiaris; parameters: dose 1 mg/kg, route oral; conditions: in vivo, read-out: Vz/F
[12] = Apparent oral clearance in dog at 1 mg/kg; type: ADME, organism-based, Canis lupus familiaris; parameters: dose 1 mg/kg, route oral; conditions: in vivo
Rattus norvegicus [13] = experiment: Inhibition of ADP-induced platelet aggregation in Sprague-Dawley rat assessed as blood loss volume at 2.5 mg/kg, po administered 2 hrs prior to transection measured for 30 mins (reference value: < 0.5 ml); type: organism-based; parameters: dose 2.5 mg/kg, route oral; conditions: in vivo, 0.5 h
Rattus norvegicus [14] = experiment: Inhibition of ADP-induced platelet aggregation in Sprague-Dawley rat assessed as bleeding time at 2.5 mg/kg, po after 2 hrs (reference value: 9.4 mins); type: organism-based; parameters: dose 2.5 mg/kg, route oral; conditions: in vivo
Rattus norvegicus [15] = experiment: Inhibition of ADP-induced platelet aggregation in Sprague-Dawley rat plasma at 2.5 mg/kg, po treated 2.5 hrs prior to ADP-challenge measured after 2 mins by light transmission-based assay; type: functional
Rattus norvegicus [16] = experiment: Inhibition of ADP-induced platelet aggregation in Sprague-Dawley rat assessed as blood loss volume at 10 mg/kg, po administered 2 hrs prior to transection measured for 30 mins (reference value: < 0.5 ml); type: organism-based; parameters: dose 10 mg/kg, route oral; conditions: in vivo, 0.5 h
Rattus norvegicus [17] = experiment: Inhibition of ADP-induced platelet aggregation in Sprague-Dawley rat assessed as blood loss volume at 5 mg/kg, po administered 2 hrs prior to transection measured for 30 mins (reference value: < 0.5 ml); type: organism-based; parameters: dose 5 mg/kg, route oral; conditions: in vivo, 0.5 h
Rattus norvegicus [18] = experiment: Inhibition of ADP-induced platelet aggregation in Sprague-Dawley rat assessed as blood loss volume at 1.25 mg/kg, po administered 2 hrs prior to transection measured for 30 mins (reference value: < 0.5 ml); type: organism-based; parameters: dose 1.25 mg/kg, route oral; conditions: in vivo, 0.5 h
Rattus norvegicus [19] = experiment: Inhibition of ADP-induced platelet aggregation in Sprague-Dawley rat assessed as blood loss volume at 0.625 mg/kg, po administered 2 hrs prior to transection measured for 30 mins (reference value: < 0.5 ml); type: organism-based; parameters: dose 0.625 mg/kg, route oral; conditions: in vivo, 0.5 h
Rattus norvegicus [20] = experiment: Inhibition of ADP-induced platelet aggregation in Sprague-Dawley rat assessed as bleeding time at 10 mg/kg, po after 2 hrs (reference value: 9.4 mins); type: organism-based; parameters: dose 10 mg/kg, route oral; conditions: in vivo
Rattus norvegicus [21] = experiment: Inhibition of ADP-induced platelet aggregation in Sprague-Dawley rat assessed as bleeding time at 5 mg/kg, po after 2 hrs (reference value: 9.4 mins); type: organism-based; parameters: dose 5 mg/kg, route oral; conditions: in vivo
Rattus norvegicus [22] = experiment: Inhibition of ADP-induced platelet aggregation in Sprague-Dawley rat assessed as bleeding time at 1.25 mg/kg, po after 2 hrs (reference value: 9.4 mins); type: organism-based; parameters: dose 1.25 mg/kg, route oral; conditions: in vivo
Rattus norvegicus [23] = experiment: Inhibition of ADP-induced platelet aggregation in Sprague-Dawley rat assessed as bleeding time at 0.625 mg/kg, po after 2 hrs (reference value: 9.4 mins); type: organism-based; parameters: dose 0.625 mg/kg, route oral; conditions: in vivo
Cytochrome P450 2C9 = Cytochrome P450 2C9 (Homo sapiens, UniProt P11712); experiment: Inhibition of CYP2C9 (unknown origin); type: ADME
Cytochrome P450 2C9, sequence (P11712 whole entry): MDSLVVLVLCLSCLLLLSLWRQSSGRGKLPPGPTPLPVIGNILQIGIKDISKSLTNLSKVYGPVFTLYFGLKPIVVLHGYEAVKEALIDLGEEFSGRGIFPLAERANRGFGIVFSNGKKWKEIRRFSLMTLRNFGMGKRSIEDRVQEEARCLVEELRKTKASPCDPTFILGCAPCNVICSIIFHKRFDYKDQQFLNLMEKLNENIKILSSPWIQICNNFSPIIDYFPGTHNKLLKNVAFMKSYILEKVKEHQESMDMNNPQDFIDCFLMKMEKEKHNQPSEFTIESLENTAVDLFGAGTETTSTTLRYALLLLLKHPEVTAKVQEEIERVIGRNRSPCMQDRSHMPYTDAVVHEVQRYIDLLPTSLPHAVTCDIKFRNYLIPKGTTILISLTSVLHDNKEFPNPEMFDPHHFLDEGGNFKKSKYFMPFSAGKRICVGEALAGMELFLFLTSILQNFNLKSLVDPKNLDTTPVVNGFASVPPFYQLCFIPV

[24] = Inhibition of CYP450 (unknown origin) at 30 uM; type: ADME; conditions: human
[25] = target: Voltage-gated inwardly rectifying potassium channel KCNH2 (Homo sapiens, UniProt Q12809); experiment: Inhibition of human ERG channel at 10 uM by patch-clamp technique
Voltage-gated inwardly rectifying potassium channel KCNH2, sequence (Q12809 whole entry): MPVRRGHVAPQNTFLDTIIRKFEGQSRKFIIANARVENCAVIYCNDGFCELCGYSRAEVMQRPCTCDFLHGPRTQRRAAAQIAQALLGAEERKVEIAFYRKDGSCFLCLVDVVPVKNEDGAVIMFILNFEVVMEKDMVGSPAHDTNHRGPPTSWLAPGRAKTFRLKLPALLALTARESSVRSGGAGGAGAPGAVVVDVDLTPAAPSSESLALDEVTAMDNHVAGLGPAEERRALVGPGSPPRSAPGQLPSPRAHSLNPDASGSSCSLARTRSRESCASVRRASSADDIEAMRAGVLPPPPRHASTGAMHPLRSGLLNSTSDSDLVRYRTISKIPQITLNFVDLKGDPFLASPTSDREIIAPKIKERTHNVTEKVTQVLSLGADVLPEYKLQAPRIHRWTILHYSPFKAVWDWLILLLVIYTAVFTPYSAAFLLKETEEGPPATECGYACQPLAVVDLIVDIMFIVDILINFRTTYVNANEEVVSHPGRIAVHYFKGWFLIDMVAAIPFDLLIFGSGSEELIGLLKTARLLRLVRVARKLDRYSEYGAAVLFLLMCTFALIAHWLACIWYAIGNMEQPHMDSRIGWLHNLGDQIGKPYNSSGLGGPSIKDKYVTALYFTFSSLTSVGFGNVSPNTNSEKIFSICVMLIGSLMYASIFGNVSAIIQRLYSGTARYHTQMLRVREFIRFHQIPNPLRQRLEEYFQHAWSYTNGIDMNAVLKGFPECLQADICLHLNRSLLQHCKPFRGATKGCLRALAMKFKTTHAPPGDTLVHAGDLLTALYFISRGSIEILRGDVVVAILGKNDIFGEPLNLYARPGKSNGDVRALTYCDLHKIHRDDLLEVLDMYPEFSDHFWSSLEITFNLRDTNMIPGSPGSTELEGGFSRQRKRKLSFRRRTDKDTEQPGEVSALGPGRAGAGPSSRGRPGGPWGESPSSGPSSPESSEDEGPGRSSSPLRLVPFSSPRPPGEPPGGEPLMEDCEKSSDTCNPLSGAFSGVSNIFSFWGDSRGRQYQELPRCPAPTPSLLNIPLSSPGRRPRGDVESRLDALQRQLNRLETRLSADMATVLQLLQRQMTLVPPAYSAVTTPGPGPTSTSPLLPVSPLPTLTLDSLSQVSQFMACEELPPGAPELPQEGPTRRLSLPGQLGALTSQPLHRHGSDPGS

P2Y purinoceptor 12 (Rattus norvegicus), sequence (Q9EPX4 whole entry): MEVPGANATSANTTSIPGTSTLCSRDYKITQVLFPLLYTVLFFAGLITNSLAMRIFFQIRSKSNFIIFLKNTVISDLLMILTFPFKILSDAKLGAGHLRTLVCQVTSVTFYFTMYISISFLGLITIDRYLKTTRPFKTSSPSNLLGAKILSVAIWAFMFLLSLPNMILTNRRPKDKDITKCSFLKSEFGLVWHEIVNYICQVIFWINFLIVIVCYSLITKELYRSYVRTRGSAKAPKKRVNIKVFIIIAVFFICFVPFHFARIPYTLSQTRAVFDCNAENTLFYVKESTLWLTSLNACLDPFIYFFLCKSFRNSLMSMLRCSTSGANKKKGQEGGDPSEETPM

Row | SMILES | inhibition [1] [%] | AUC [2] [ng·h/mL] | Cmax [3] [ng/mL] | half-life [4] [h] | Vd/F [5] [L/kg] | CL/F [6] [mL/min/kg] | AUC [8] [ng·h/mL] | Cmax [9] [ng/mL] | half-life [10] [h] | Vd/F [11] [L/kg] | CL/F [12] [mL/min/kg] | also measured
1 | CCCSc1nc(NC2Cc3ccccc3C2)c2nnn([C@@H]3C[C@H](OCCO)[C@@H](O)[C@H]3O)c2n1 | 0 | – | – | – | – | – | – | – | – | – | – | –
2 | CCCSc1nc(N[C@@H]2C[C@H]2c2ccc(Cl)s2)c2nnn([C@@H]3C[C@H](OCCO)[C@@H](O)[C@H]3O)c2n1 | – | 64.4 | 28.7 | 3.35 | 206 | 712 | – | – | – | – | – | –
3 | CCCSc1nc(N[C@@H]2C[C@H]2c2ccc(F)c(F)c2)c2nnn(C3[C@H](O)[C@H](O)[C@@H](O)[C@H]3O)c2n1 (some centres undefined) | – | 146 | 55.4 | 1.7 | 217 | 2200 | – | – | – | – | – | –
4 | CCCSc1nc(N[C@@H]2C[C@H]2c2ccc(F)c(F)c2)c2nnn([C@H]3[C@H](O)[C@H](O)[C@@H](OCCO)[C@H]3F)c2n1 | – | 512 | 127 | 2.83 | 82.4 | 350 | 218 | 55.6 | 2.46 | 15.4 | 72.3 | –
5 | CCCSc1nc(N[C@@H]2C[C@H]2c2ccc(F)c(F)c2)c2nnn([C@H]3[C@H](O)[C@H](O)[C@]4(CO)C[C@H]34)c2n1 | 0 | – | – | – | – | – | – | – | – | – | – | –
6 | CCCSc1nc(N[C@@H]2C[C@H]2c2ccc(F)c(F)c2)c2nnn([C@H]3[C@H](O)[C@H](O)[C@@H](O)[C@H]3F)c2n1 | – | 1200 | 303 | 3.56 | 43.4 | 139 | 469 | 110 | 1.94 | 6.26 | 36.7 | Activity (Rattus norvegicus [16]): 1.75 mL; Activity (Rattus norvegicus [17]): 0.9 mL; Activity (Rattus norvegicus [13]): < 0.5 mL; Activity (Rattus norvegicus [18]): < 0.5 mL; Activity (Rattus norvegicus [19]): < 0.5 mL; Time (Rattus norvegicus [20]): > 30 min; Time (Rattus norvegicus [21]): > 30 min; Time (Rattus norvegicus [14]): 9.76 min; Time (Rattus norvegicus [22]): 10.67 min; Time (Rattus norvegicus [23]): 8.59 min; inhibition in vivo at 2.5 mg/kg (Rattus norvegicus [15]): 95%; IC50 (Cytochrome P450 2C9): 8.82 µM; inhibition (INH) [24]: Not Active; inhibition (INH) [25]: Not Active

More lines, main results first:

Row | inhibition [1] [%] | AUC [2] [ng·h/mL] | Cmax [3] [ng/mL] | half-life [4] [h] | Vd/F [5] [L/kg] | CL/F [6] [mL/min/kg] | AUC [8] [ng·h/mL] | Cmax [9] [ng/mL] | half-life [10] [h] | Vd/F [11] [L/kg] | CL/F [12] [mL/min/kg] | SMILES | also measured
7 | 0 | – | – | – | – | – | – | – | – | – | – | CCCSc1nc(N[C@@H]2C[C@H]2c2ccc(F)c(F)c2)c2nnn([C@@H]3C[C@H](OCCOCCO)[C@@H](O)[C@H]3O)c2n1 | –
8 | – | 13.8 | 3.89 | 1.72 | – | – | – | – | – | – | – | CCCSc1nc(N[C@@H]2C[C@H]2c2ccc(F)c(F)c2)c2nnn([C@@H]3C[C@H](OCC(O)CO)[C@@H](O)[C@H]3O)c2n1 (mixture of isomers) | Vz/F (Rattus norvegicus [7]): 1513 L/kg
9 | – | 1400 | 267 | 2.23 | 24.2 | 133 | 504 | 125 | 2.03 | 5.76 | 32.8 | CCCSc1nc(N[C@@H]2C[C@H]2c2ccc(F)c(F)c2)c2nnn([C@@H]3C[C@H](OCCO)[C@@H](O)[C@H]3O)c2n1 [TICAGRELOR] | Activity (Rattus norvegicus [13]): 0.5 mL; Time (Rattus norvegicus [14]): > 30 min; inhibition in vivo at 2.5 mg/kg (Rattus norvegicus [15]): 59%
10 | – | 1270 | 195 | 2.33 | 27.1 | 137 | 24.3 | 8.29 | 1.21 | 88.4 | 865 | CCCSc1nc(N[C@@H]2C[C@H]2c2ccc(F)c(F)c2)c2nnn([C@@H]3C[C@H](F)[C@@H](O)[C@H]3O)c2n1 | –
